Experiments:
CCR9 = biological target: T1, CCR9 (Homo sapiens, UniProt P51686); assay: NanoBRET-based assay for binding to the IABS of CCR9, as previously reported; conditions: up to a concentration of 20 μM
T1 construct: host or cells: HEK293T, transient
T1 sequence (P51686 1-369): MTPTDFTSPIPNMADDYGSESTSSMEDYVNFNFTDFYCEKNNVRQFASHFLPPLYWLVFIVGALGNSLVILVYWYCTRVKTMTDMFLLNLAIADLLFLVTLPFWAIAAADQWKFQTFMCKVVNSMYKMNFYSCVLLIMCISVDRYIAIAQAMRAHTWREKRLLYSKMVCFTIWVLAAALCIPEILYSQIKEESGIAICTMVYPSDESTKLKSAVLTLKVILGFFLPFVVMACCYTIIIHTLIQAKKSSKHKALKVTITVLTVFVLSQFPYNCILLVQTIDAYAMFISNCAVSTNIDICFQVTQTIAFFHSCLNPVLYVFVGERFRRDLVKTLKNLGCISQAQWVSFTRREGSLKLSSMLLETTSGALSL
Text: (§1) With 6 (Figure 1), a first lead structure for intracellular CCR1 inhibition that features an approximately 20-fold CCR1 over CCR2 selectivity was previously discovered by Ortiz Zacarías et al.([33]) In order to discover new chemotypes for selective CCR1 over CCR2 inhibition, we aimed to apply our novel NanoBRET competition binding assay for CCR1 in combination with our recently published CCR2 competition binding assay based on 7.[47] In our first attempt, we screened a small in-house library enriched with intracellular GPCR ligands and structural analogues thereof. […] Additionally, we tested 23 for binding to the IABS of CCR9 and CXCR2 using our recently reported NanoBRET-based assay platform (Figure 6C).[44],[45] In the course of these studies, we detected no binding of 23 to CCR9 and CXCR2 up to a concentration of 20 μM. Since cell lineage-dependent effects have been observed for CCR1 antagonists,[59] we studied the CCR1 over CCR2 selectivity of 23 by using a previously reported radioligand binding assay with membrane preparations from osteosarcoma (U2OS) cells stably expressing human CCR1 or CCR2.[33] […] In agreement with these previous reports,[33] we observed a reduction in CCR1 over CCR2 selectivity when moving from membrane-based binding assays to cell-based functional assays. […]

CXCR2 = biological target: T2, CXCR2 (Homo sapiens, UniProt P25025); assay: NanoBRET-based assay for binding to the IABS of CXCR2, as previously reported; conditions: up to a concentration of 20 μM
T2 construct: host or cells: HEK293T, transient
T2 sequence (P25025 1-360): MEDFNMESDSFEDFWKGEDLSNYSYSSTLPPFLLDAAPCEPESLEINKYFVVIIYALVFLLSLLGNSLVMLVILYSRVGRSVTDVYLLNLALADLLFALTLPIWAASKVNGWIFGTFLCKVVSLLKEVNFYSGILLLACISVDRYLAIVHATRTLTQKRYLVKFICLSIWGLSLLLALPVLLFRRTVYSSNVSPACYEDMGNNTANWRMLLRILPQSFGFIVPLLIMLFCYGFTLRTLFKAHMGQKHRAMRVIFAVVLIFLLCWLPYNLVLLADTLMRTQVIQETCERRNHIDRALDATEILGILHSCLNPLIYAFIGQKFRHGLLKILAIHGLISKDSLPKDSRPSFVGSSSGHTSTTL
Text: as §1

SMILES: O=C(C1=C(O)C(=O)N(CCc2ccc(O)cc2)C1c1ccc(F)cc1)c1ccccc1 (racemic) [compound 23]
- Binding to the IABS of CCR9 (CCR9): no binding
- Binding to the IABS of CXCR2 (CXCR2): no binding

Source: paper PMC11249626, “Fluorophore-Labeled Pyrrolones Targeting the Intracellular Allosteric Binding Site of the Chemokine Receptor CCR1” (ACS Pharmacology & Translational Science, 2024)
